From patent US20180263996A1, “ARYL SULTAM DERIVATIVES AS RORc MODULATORS” (Genentech, Inc., priority 2015, published 2018) come the findings set out here.

pIC50: −log10 of the molar value.

This experiment has as its target T1, RORc (Homo sapiens, UniProt P51449).
T1 construct: host or cells: E. coli
T1 sequence (P51449 269-508 limits assumed): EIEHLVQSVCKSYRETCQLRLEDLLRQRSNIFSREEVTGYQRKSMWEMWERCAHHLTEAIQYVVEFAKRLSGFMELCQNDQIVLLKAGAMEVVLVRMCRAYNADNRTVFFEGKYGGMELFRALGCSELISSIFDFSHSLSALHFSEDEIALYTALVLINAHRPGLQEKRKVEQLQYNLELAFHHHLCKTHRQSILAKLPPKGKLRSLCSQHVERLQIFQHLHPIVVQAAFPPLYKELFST
The experiment is described as follows: In Vitro RORc Ligand Binding Assay. The conditions noted are these: IC50 values for RORc. How it is done: This assay was used to determine a compound's potency in inhibiting activity of RORc by determining, Kiapp, IC50, or percent inhibition values.
On day of the assay, 100 uL of 0.05% CHAPS (in deionized H2O) was added to all wells of the GFB Unifilter plate and allowed soak for 1 h. A wash buffer of 50 mM HEPES (pH 7.4), 150 mM NaCl, and 5 mM MgCl2 was prepared to wash the filter plate. To prepare an assay buffer, BSA was added to the wash buffer to reach 0.01% and DTT was added to reach 1 mM.
The 20× compound stocks were diluted in DMSO with Assay Buffer 4-fold to reach 5× the final test concentration in 25% DMSO (10 uL compound+30 uL Assay Buffer). Solutions were mixed by aspiration several times with a pipette set on 50 uL volume.
For two point screening, 10 mM stock compound solutions were diluted in DMSO to obtain 200 uM (20× the high test concentration) and then diluted 10-fold further to reach 20 uM (20× the low test concentration). The 20× stocks were diluted 4-fold with Assay Buffer (10 uL compound+30 uL Assay Buffer) to reach 5× the test concentrations (50 uM and 5 uM) and 10 uL were added to two assay plates for the duplicate wells. With each concentration tested on 2 plates, each set of 80 compounds used 4 assay plates (1 uM and 10 uM, with n=2).
For 25-hydroxycholesterol in 25% DMSO/75% Assay Buffer; 10 uL per well was used for NSB samples. Wells for Total Binding and No Receptor sample determination contained 10 uL of 25% DMSO/75% Assay Buffer per well.
Add 20 uL to all wells to reach 6 nM final concentration in the assay.
Stock receptor solution was diluted in assay buffer to obtain 1.5 ug/mL in Assay Buffer. 20 uL was added to all wells. For No Receptor samples, 20 uL Assay Buffer was substituted for receptor solution.
Assay plates were 96-well polypropylene V-bottom plates. […] 10 uL of 25% DMSO/75% Assay Buffer was added to Total Binding or No Receptor wells. 10 uL of 5 uM 25-hydroxycholesterol in 25% DMSO/75% Assay Buffer was added to NSB wells. […] 20 uL of 1.5 ug/mL RORc receptor was added to wells (or 40 uL Assay Buffer to No R wells). Following addition to the wells, the plates were incubated 3 h at 25° C.
Using a Packard Filtermate Harvester, the filter plate were washed 4 times following transfer of the incubated samples. Plates were dry-filtered completely (2 h at 50° C. or overnight at room temperature). 50 uL Microscint 0 was added to all wells and read on Topcount protocol Inverted.
Final concentrations were as follows: 50 mM HEPES buffer (pH 7.4); 150 mM NaCl; 1 mM DTT; 5 mM MgCl2; 0.01% BSA; 5% DMSO; 0.6 ug/mL RORc receptor; 6 nM 25-[^3H]hydroxycholesterol. For NSB wells, 1 uM 25-hydroxycholesterol was also present.
Take `C[C@H]1CC[C@H](c2ccccc2)S(=O)(=O)N1Cc1ccc(C2(C(=O)NC3(C#N)CC3)CCOCC2)cc1F` (stereo in doubt) [Compound 36, N-(1-cyanocyclopropyl)-4-[3-fluoro-4-[[(3S,6R)-3-methyl-1,1-dioxo-6-phenyl-thiazinan-2-yl]methyl]phenyl]tetrahydropyran-4-carboxamide]: the negative logarithm of the IC50 (pIC50) (as a rule, the IC50 on a negative log10 scale, so that one unit is a factor of ten) is 6.63. Then `C[C@H]1CC[C@H](c2ccccc2)S(=O)(=O)N1Cc1cc(F)c(C2(NC(=O)C3CC3)COC2)cc1F` (stereo in doubt) [Compound 46, N-[3-[2,5-difluoro-4-[[(3S,6R)-3-methyl-1,1-dioxo-6-phenyl-thiazinan-2-yl]methyl]phenyl]oxetan-3-yl]cyclopropanecarboxamide], with 7.48. Then `Cc1cc(C(=O)NC(C)c2cc(F)c(CN3[C@@H](C)CC[C@H](c4ccccc4)S3(=O)=O)cc2F)no1` (stereo in doubt) [Compound 51, N-[1-[2,5-difluoro-4-[[(3S,6R)-3-methyl-1,1-dioxo-6-phenyl-thiazinan-2-yl]methyl]phenyl]ethyl]-5-methyl-isoxazole-3-carboxamide], with 8.15; and `Cc1n[nH]cc1C(=O)NC(C)c1cc(F)c(CN2[C@@H](C)CC[C@H](c3ccccc3)S2(=O)=O)cc1F` (stereo in doubt) [Compound 53, N-[1-[2,5-difluoro-4-[[(3S,6R)-3-methyl-1,1-dioxo-6-phenyl-thiazinan-2-yl]methyl]phenyl]ethyl]-3-methyl-1H-pyrazole-4-carboxamide], with 7.85. Under `CC(NC(=O)c1ccno1)c1cc(F)c(CN2[C@@H](C)CC[C@H](c3ccccc3)S2(=O)=O)cc1F` (stereo in doubt) [Compound 55, N-[1-[2,5-difluoro-4-[[(3S,6R)-3-methyl-1,1-dioxo-6-phenyl-thiazinan-2-yl]methyl]phenyl]ethyl]isoxazole-5-carboxamide] stands 7.96; under `Cc1cc(C(=O)NC(C)c2cc(F)c(CN3[C@@H](C)CC[C@H](c4ccccc4)S3(=O)=O)cc2F)[nH]n1` (stereo in doubt) [Compound 56, N-[1-[2,5-difluoro-4-[[(3S,6R)-3-methyl-1,1-dioxo-6-phenyl-thiazinan-2-yl]methyl]phenyl]ethyl]-3-methyl-1H-pyrazole-5-carboxamide], 6.97. Compound `CC(NC(=O)c1cnccn1)c1cc(F)c(CN2[C@@H](C)CC[C@H](c3ccccc3)S2(=O)=O)cc1F` (stereo in doubt) [Compound 57, N-[1-[2,5-difluoro-4-[[(3S,6R)-3-methyl-1,1-dioxo-6-phenyl-thiazinan-2-yl]methyl]phenyl]ethyl]pyrazine-2-carboxamide] had a pIC50 of 6.84. Consider `CC(NC(=O)c1ccn(C)n1)c1cc(F)c(CN2[C@@H](C)CC[C@H](c3ccccc3)S2(=O)=O)cc1F` (stereo in doubt) [Compound 58, N-[1-[2,5-difluoro-4-[[(3S,6R)-3-methyl-1,1-dioxo-6-phenyl-thiazinan-2-yl]methyl]phenyl]ethyl]-1-methyl-pyrazole-3-carboxamide], for which the negative-log IC50 (pIC50) was 6.60. Under `CC(NC(=O)c1c[nH]cn1)c1cc(F)c(CN2[C@@H](C)CC[C@H](c3ccccc3)S2(=O)=O)cc1F` (stereo in doubt) [Compound 59, N-[1-[2,5-difluoro-4-[[(3S,6R)-3-methyl-1,1-dioxo-6-phenyl-thiazinan-2-yl]methyl]phenyl]ethyl]-1H-imidazole-4-carboxamide] stands 7.03; under `Cc1nocc1C(=O)NC(C)c1cc(F)c(CN2[C@@H](C)CC[C@H](c3ccccc3)S2(=O)=O)cc1F` (stereo in doubt) [Compound 60, N-[1-[2,5-difluoro-4-[[(3S,6R)-3-methyl-1,1-dioxo-6-phenyl-thiazinan-2-yl]methyl]phenyl]ethyl]-3-methyl-isoxazole-4-carboxamide], 7.26; under `CC(NC(=O)c1cnn(C)c1)c1cc(F)c(CN2[C@@H](C)CC[C@H](c3ccccc3)S2(=O)=O)cc1F` (stereo in doubt) [Compound 61, N-[1-[2,5-difluoro-4-[[(3S,6R)-3-methyl-1,1-dioxo-6-phenyl-thiazinan-2-yl]methyl]phenyl]ethyl]-1-methyl-pyrazole-4-carboxamide], 7.85. Then `CC(NC(=O)c1cn(C)cn1)c1cc(F)c(CN2[C@@H](C)CC[C@H](c3ccccc3)S2(=O)=O)cc1F` (stereo in doubt) [Compound 62, N-[1-[2,5-difluoro-4-[[(3S,6R)-3-methyl-1,1-dioxo-6-phenyl-thiazinan-2-yl]methyl]phenyl]ethyl]-1-methyl-imidazole-4-carboxamide], with 6.41. Under `CC(NC(=O)c1cncnc1)c1cc(F)c(CN2[C@@H](C)CC[C@H](c3ccccc3)S2(=O)=O)cc1F` (stereo in doubt) [Compound 63, N-[1-[2,5-difluoro-4-[[(3S,6R)-3-methyl-1,1-dioxo-6-phenyl-thiazinan-2-yl]methyl]phenyl]ethyl]pyrimidine-5-carboxamide] stands 8.08. With `Cc1ncoc1C(=O)NC(C)c1cc(F)c(CN2[C@@H](C)CC[C@H](c3ccccc3)S2(=O)=O)cc1F` (stereo in doubt) [Compound 64, N-[1-[2,5-difluoro-4-[[(3S,6R)-3-methyl-1,1-dioxo-6-phenyl-thiazinan-2-yl]methyl]phenyl]ethyl]-4-methyl-oxazole-5-carboxamide], the pIC50 is 6.64. `CC(NC(=O)c1cocn1)c1cc(F)c(CN2[C@@H](C)CC[C@H](c3ccccc3)S2(=O)=O)cc1F` (stereo in doubt) [Compound 65, N-[1-[2,5-difluoro-4-[[(3S,6R)-3-methyl-1,1-dioxo-6-phenyl-thiazinan-2-yl]methyl]phenyl]ethyl]oxazole-4-carboxamide] gave a pIC50 of 6.78. `Cc1cc(C(=O)NC(C)c2cc(F)c(CN3[C@@H](C)CC[C@H](c4ccccc4)S3(=O)=O)cc2F)on1` (stereo in doubt) [Compound 67, N-[1-[2,5-difluoro-4-[[(3S,6R)-3-methyl-1,1-dioxo-6-phenyl-thiazinan-2-yl]methyl]phenyl]ethyl]-3-methyl-isoxazole-5-carboxamide] showed a pIC50 of 8.19.

As to `CC(NC(=O)c1cc[nH]n1)c1cc(F)c(CN2[C@@H](C)CC[C@H](c3ccccc3)S2(=O)=O)cc1F` (stereo in doubt) [Compound 68, N-[1-[2,5-difluoro-4-[[(3S,6R)-3-methyl-1,1-dioxo-6-phenyl-thiazinan-2-yl]methyl]phenyl]ethyl]-1H-pyrazole-3-carboxamide], the pIC50 was 7.08. Regarding `CC(NC(=O)c1ccnn1C)c1cc(F)c(CN2[C@@H](C)CC[C@H](c3ccccc3)S2(=O)=O)cc1F` (stereo in doubt) [Compound 69, N-[1-[2,5-difluoro-4-[[(3S,6R)-3-methyl-1,1-dioxo-6-phenyl-thiazinan-2-yl]methyl]phenyl]ethyl]-2-methyl-pyrazole-3-carboxamide], the pIC50 was 7.13.

For `CC(NC(=O)c1nc(N)n[nH]1)c1cc(F)c(CN2[C@@H](C)CC[C@H](c3ccccc3)S2(=O)=O)cc1F` (stereo in doubt) [Compound 71, 3-amino-N-[1-[2,5-difluoro-4-[[(3S,6R)-3-methyl-1,1-dioxo-6-phenyl-thiazinan-2-yl]methyl]phenyl]ethyl]-1H-1,2,4-triazole-5-carboxamide], the pIC50 is 7.32.
